From ChEMBL document CHEMBL1145420, “On sampling of fragment space” (J Med Chem, 2007) come the findings set out here.

The target in experiment [1] is Dipeptidyl peptidase 8 (Homo sapiens) (UniProt Q6V1X1). Put plainly: Inhibition of DPP8.
The target in experiment [2] is Dipeptidyl peptidase 9 (Homo sapiens) (UniProt Q86TI2). In words: Inhibition of DPP9.
Experiment [3] has as its target Dipeptidyl peptidase 2 (Homo sapiens) (UniProt Q9UHL4). In words: Inhibition of QPP.
Experiment [4] deals with T1, Prolyl endopeptidase (Homo sapiens) (UniProt P48147).
T1 sequence (whole entry): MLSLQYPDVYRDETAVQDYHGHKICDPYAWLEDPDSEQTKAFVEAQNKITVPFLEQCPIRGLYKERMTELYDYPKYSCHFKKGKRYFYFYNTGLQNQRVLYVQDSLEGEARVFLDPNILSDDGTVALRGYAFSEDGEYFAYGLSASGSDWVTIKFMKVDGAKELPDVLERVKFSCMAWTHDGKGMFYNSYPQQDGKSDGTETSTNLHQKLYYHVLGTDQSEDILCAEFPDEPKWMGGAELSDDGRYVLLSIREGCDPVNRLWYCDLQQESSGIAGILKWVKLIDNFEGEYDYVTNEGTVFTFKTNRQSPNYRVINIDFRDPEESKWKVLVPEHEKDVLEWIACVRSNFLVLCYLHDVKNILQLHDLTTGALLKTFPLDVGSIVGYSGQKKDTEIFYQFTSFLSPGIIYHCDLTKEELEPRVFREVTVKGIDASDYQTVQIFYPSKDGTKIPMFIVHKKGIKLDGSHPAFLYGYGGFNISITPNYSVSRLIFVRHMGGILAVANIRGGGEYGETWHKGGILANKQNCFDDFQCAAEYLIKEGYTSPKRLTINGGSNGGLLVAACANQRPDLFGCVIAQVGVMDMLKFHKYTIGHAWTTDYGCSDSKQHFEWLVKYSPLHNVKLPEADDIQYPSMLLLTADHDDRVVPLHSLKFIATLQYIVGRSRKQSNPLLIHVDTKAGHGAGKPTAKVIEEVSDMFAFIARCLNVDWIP
In words: Inhibition of PEP.

Experiment [5] addresses Prolyl endopeptidase FAP (Homo sapiens) (UniProt Q12884). Put plainly: Inhibition of FAP.

Some results are limits rather than exact numbers.

Dipeptidyl peptidase 9 (Homo sapiens), sequence (Q86TI2 2-863 limits assumed): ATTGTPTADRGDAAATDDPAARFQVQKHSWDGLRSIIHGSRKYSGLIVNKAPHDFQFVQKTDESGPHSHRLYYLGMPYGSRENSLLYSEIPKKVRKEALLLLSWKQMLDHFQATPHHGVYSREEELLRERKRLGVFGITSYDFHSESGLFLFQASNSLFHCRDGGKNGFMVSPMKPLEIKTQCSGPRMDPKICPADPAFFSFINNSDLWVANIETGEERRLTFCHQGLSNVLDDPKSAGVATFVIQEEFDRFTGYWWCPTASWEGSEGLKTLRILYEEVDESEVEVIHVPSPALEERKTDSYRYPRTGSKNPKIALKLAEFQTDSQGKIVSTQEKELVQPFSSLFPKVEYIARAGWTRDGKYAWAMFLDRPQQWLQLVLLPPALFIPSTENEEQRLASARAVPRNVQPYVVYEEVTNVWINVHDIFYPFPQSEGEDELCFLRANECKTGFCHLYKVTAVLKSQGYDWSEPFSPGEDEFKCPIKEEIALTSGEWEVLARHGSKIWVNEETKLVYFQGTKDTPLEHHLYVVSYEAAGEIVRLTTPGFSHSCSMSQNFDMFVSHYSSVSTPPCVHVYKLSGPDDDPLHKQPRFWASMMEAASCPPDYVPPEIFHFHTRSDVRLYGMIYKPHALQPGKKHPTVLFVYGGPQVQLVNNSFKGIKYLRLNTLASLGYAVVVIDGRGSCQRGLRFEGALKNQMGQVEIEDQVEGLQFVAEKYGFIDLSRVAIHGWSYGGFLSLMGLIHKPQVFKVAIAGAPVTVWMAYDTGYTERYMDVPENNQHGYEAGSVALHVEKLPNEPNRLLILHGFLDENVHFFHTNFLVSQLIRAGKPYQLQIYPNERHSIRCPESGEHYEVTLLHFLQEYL
Dipeptidyl peptidase 8 (Homo sapiens), sequence (Q6V1X1 whole entry, looked up): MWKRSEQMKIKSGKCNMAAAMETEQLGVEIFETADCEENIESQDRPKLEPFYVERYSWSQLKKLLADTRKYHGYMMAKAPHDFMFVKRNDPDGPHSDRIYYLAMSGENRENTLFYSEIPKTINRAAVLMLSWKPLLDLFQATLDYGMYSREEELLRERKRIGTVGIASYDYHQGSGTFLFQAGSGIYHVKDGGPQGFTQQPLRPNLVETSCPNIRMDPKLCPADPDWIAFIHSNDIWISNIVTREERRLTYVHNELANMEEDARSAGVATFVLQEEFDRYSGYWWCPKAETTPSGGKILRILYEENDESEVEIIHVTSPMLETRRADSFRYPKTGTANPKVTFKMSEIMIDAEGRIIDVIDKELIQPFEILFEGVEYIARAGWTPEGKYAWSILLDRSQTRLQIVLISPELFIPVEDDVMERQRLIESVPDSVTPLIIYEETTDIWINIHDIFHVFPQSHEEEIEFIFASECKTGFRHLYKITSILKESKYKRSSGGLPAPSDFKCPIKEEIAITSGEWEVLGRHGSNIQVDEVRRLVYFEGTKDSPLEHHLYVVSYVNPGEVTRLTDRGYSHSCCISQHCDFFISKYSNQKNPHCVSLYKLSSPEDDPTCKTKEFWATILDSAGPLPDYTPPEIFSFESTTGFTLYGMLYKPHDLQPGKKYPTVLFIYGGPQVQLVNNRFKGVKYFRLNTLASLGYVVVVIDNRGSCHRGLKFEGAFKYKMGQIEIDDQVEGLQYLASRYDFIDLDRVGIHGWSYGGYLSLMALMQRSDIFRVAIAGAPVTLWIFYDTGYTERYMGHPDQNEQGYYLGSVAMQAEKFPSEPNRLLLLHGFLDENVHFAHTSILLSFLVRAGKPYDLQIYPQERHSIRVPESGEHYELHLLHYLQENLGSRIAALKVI
Prolyl endopeptidase FAP (Homo sapiens), sequence (Q12884 whole entry): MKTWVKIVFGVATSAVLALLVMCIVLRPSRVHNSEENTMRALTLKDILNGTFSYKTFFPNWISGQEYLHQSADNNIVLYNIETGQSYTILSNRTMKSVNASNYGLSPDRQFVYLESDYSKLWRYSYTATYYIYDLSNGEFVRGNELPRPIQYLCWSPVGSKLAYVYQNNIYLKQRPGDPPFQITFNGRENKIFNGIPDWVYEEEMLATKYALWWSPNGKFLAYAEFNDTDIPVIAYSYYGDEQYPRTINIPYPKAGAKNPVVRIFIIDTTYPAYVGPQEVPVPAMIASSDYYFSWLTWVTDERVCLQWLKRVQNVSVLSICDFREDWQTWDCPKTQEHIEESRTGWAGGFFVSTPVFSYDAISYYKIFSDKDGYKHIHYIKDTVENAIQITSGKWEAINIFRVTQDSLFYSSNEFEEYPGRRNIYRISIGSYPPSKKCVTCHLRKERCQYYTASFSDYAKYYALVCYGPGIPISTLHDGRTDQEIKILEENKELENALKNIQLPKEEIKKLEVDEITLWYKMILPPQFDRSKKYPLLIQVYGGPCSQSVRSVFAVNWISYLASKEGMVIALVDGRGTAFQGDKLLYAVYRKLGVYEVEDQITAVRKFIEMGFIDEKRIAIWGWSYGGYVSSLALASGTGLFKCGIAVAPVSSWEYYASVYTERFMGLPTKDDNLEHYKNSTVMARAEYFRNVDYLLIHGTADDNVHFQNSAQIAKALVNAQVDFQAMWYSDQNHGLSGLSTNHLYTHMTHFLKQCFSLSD

In the case of `CNC(=O)C[C@H](N)Cc1ccccc1`, the Activity was 460 µM in experiment [1]; over 1000 µM in experiment [2]; 680 µM in experiment [3]; over 1000 µM in experiment [4]; over 1000 µM in experiment [5].

For `N[C@@H](CC(=O)N1CCC[C@H]1C(=O)NCc1cc(Cl)ccc1OCC(=O)NC1CC1)Cc1ccccc1`, the Activity in experiment [1] was over 10 µM; in experiment [2] it was over 100 µM; in experiment [3], 66 µM.
